{"source": "patent EP1932852B1", "about": "“Novel taxane related peptides and uses thereof” (Campiani, Giuseppe, priority 2006, dated 2008)", "key": {"Bcl2/Nur77 complex": {"biological_target": "T1, Bcl2/Nur77 complex (Homo sapiens, UniProt P10415)", "T1 construct": "endogenous in cells; host or cells: A2780 (human ovarian cancer) whole cell lysate", "T1 sequence (P10415 whole entry, one chain of several)": "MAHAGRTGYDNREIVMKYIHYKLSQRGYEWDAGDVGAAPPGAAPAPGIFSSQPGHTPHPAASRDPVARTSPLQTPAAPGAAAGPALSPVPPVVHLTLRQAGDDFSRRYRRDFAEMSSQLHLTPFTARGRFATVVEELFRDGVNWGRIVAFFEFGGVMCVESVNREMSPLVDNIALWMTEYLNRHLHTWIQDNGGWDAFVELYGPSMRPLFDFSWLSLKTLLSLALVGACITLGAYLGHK", "experiment": "Co-immunoprecipitation of Nur77 with Bcl-2 in the presence of PTX", "assay_type": "binding", "details": "whole cell lysates from A2780, PTX 10 µM, 2 h at 4 °C", "experimental": "(§1) Cells, harvested in cold phosphate-buffered saline, were extracted for 30 min at 4 °C in lysis buffer (50 mM Tris-HCl, pH 7.4, 150 mM NaCl, 1% NP-40) containing 1mM DTT, protease inhibitor cocktail (Roche) and phosphatase inhibitors (50 mM NaF, 0.2 mM Na3VO4). Mitochondria isolation was performed as previously described (Ferlini et al., 2003). After centrifugation, supernatants (300 µg from total lysates and 100 µg from mitochondrial extracts) were immunoprecipitated at 4 °C overnight in lysis buffer by adding protein A/G plus-agarose beads (Santa Cruz Biotechnology) after 2 h of incubation with 2 µg of the following antibodies: anti-Bcl-2 (N19, Santa Cruz Biotechnology), anti-Bcl-2 (clone 124, Dako), anti-Bcl-2 BH3 domain (Abgent), anti-Nur77 (Imgenex), anti-β-tubulin (H235, Santa Cruz Biotechnology), anti-class III β-tubulin polyclonal antibody (Covance) and isotype-matched non-immune IgG (Sigma) as control. […]\nThe significant similarity between the binding sites of the two PTX target proteins resulted from molecular modeling studies prompted the authors to investigate the possibility that PTX is a peptidomimetic compound. […] In order to assess this hypothesis, recombinant histidine-tagged Nur77 was purified and the interaction with in vitro produced Bcl-2 and Bcl-2Δ labeled with ^35S-methionine was analyzed. […]"}, "Bcl-2": {"test_system": "Bcl-2", "experiment": "Western blot of Bcl-2 in mitochondrial extracts (mobility shift)", "assay_type": "cell-based, human", "details": "A2780wt treated 24h with PTX 1 µM", "experimental": "as §1\nIt has already been shown that Bcl-2 is phosphorylated following exposure to PTX and that phosphorylation occurs in the disordered loop of Bcl-2 (Haldar et al., 1996; Fang et al., 1998). In order to investigate if Nur77, like PTX, is able to induce Bcl-2 mobility shifts, A2780 and TC1 cell lines overexpressing Nur77 (thereafter referred to as A2780Nur77 and TC1Nur77) were established and Bcl-2 status was analysed. […]"}, "[1]": {"test_system": "mitochondria freshly isolated from TC1-Bcl-2Δ cells", "experiment": "Flow cytometric assessment of Δψm in freshly isolated mitochondria (Rhodamine 123)", "assay_type": "cell-based, human", "details": "PTX 10 µM, 60 min; mitochondria from TC1-Bcl-2Δ; without treatment 14%", "experimental": "(§2) Cell culture procedures and cell lines have been elsewhere described (Ferlini et al., 2003). Mitochondria were freshly isolated and mitochondrial transmembrane potential Δψm was assessed as previously described (Ferlini et al., 1995), using Rhodamine 123 (Molecular Probes) and a Facscan flow cytometer (Becton Dickinson).\n(§3) Here, they used the human ovary A2780 cancer cell line and its counterpart TC1 (Ferlini et al., 2003) with acquired PTX-resistance. […] Since the homology between the Bcl-2 and Bcl-xL is high, with the exception of the loop domain, TC1 cells were stably transfected with a construct in which the loop domain of Bcl-2 (aa 35-91) was deleted and replaced with a linker sequence of four alanine residues, as previously described by Chang et al. (Chang et al., 1997). These cells are thereafter referred to as TC1 Bcl-2Δ. Mitochondria were freshly isolated from these cells and were treated with PTX (10 µM). This concentration has a clinical relevance since it corresponds to the intracellular concentration achievable in patients. (Andre et al., 2000).\n(§4) The status of mitochondrial transmembrane potential (Δψm) was then monitored using the cationic fluorochrome Rhodamine 123 and flow cytometry. Results of these experiments are depicted in Fig. 1B. […] In fact, as reported in Fig. 1B the percentage of mitochondria with full leakage of the Δψm pass from 18% to 78%. […] In TC1-Bcl-2 cells, the sensitivity to PTX treatment was restored and again the vast majority of treated mitochondria were able to open the PTPC upon PTX treatment and dissipate the Δψm (from 8% to 82%). […] Taken together, these findings indicate that PTX is able to convert Bcl-2 in a factor proficient to activate the opening of PTPC and that such activity requires the presence of Bcl-2 loop domain, since it is not longer detectable in mitochondria from TC1-Bcl-2Δ cells."}, "[2]": {"test_system": "mitochondria freshly isolated from TC1 cells", "experiment": "Flow cytometric assessment of Δψm in freshly isolated mitochondria (Rhodamine 123)", "assay_type": "cell-based, human", "details": "PTX 10 µM, 60 min; mitochondria from TC1 (undetectable Bcl-2); without treatment 16%", "experimental": "as §2, §3, §4"}, "[3]": {"test_system": "mitochondria freshly isolated from TC1-Bcl-2 cells", "experiment": "Flow cytometric assessment of Δψm in freshly isolated mitochondria (Rhodamine 123)", "assay_type": "cell-based, human", "details": "PTX 10 µM, 60 min; mitochondria from TC1-Bcl-2; without treatment 8%", "experimental": "as §2, §3, §4"}, "[4]": {"test_system": "mitochondria freshly isolated from A2780wt cells", "experiment": "Flow cytometric assessment of Δψm in freshly isolated mitochondria (Rhodamine 123)", "assay_type": "cell-based, human", "details": "PTX 10 µM, 60 min, without treatment 18%", "experimental": "as §2, §3, §4"}}, "data": [{"smiles": "CC(=O)O[C@H]1C(=O)[C@@]2(C)[C@H]([C@H](OC(=O)c3ccccc3)[C@]3(O)C[C@H](OC(=O)[C@H](O)[C@@H](NC(=O)c4ccccc4)c4ccccc4)C(C)=C1C3(C)C)[C@]1(OC(C)=O)CO[C@@H]1C[C@@H]2O", "note": "[PTX, paclitaxel]", "values": [{"measurement": "displacement of Nur77 from Bcl-2", "setting": "Bcl2/Nur77 complex", "result": "able to displace Nur77 from Bcl-2"}, {"measurement": "slow mobility band of Bcl-2", "setting": "Bcl-2", "result": "slow mobility band was detectable"}, {"measurement": "mitochondria with changed Δψm status", "setting": "[1]", "result": 20, "unit": "%"}, {"measurement": "number of mitochondria with the leakage of Δψm", "setting": "[2]", "result": 26, "unit": "%"}, {"measurement": "mitochondria that open the PTPC and dissipate the Δψm", "setting": "[3]", "result": 82, "unit": "%"}, {"measurement": "percentage of mitochondria with full leakage of the Δψm", "setting": "[4]", "result": 78, "unit": "%"}]}]}
